Test results reported in PubChem BioAssay AID1259407 (Chemical Carcinogenesis Research Information System (CCRIS), 2018).
The source made the active and inactive calls. No rule for the calls is given here.

System: CCRIS mutagenicity, Ames/micronucleus/aberration tests
Test: CCRIS mutagenicity studies

Cc1cc(-c2ccc(N)c(C)c2)ccc1N
mutagenic call (End Point: IN VITRO CHROMOSOMAL ABERRATIONS, Test System: CHINESE HAMSTER OVARY CELLS, Metabolic Activation: NONE): active; positive
mutagenic call (End Point: IN VITRO CHROMOSOMAL ABERRATIONS, Test System: CHINESE HAMSTER OVARY CELLS, Metabolic Activation: RAT, LIVER, S-9, AROCLOR 1254): active; positive
mutagenic call (End Point: IN VITRO CHROMOSOMAL ABERRATIONS, Test System: CHL CELLS, Metabolic Activation: NONE): active; positive (structural changes)
mutagenic call (End Point: IN VITRO CHROMOSOMAL ABERRATIONS, Test System: CHL CELLS, Metabolic Activation: RAT, LIVER, S-9, SODIUM PHENOBARBITAL AND 5,6-BENZOFLAVONE): inactive; negative; authors report equivocal results for structural changes at the highest
mutagenic call (Test System: AMES SALMONELLA TYPHIMURIUM, Strain/Indicator: SV50, Metabolic Activation: NONE, Method: PREINCUBATION (PRIVAL METHOD)): inactive; negative
mutagenic call (Test System: AMES SALMONELLA TYPHIMURIUM, Strain/Indicator: SV50, Metabolic Activation: RAT, LIVER, S-9, AROCLOR 1254, Method: STANDARD PLATE): inactive; negative
mutagenic call (Test System: AMES SALMONELLA TYPHIMURIUM, Strain/Indicator: TA97, Metabolic Activation: HAMSTER, LIVER, S-9, AROCLOR 1254 (10%), Method: PREINCUBATION): inactive; negative
mutagenic call (Test System: AMES SALMONELLA TYPHIMURIUM, Strain/Indicator: TA97, Metabolic Activation: HAMSTER, LIVER, S-9, AROCLOR 1254, Method: PREINCUBATION): inactive; negative
mutagenic call (Test System: AMES SALMONELLA TYPHIMURIUM, Strain/Indicator: TA97, Metabolic Activation: NONE, Method: PREINCUBATION): inactive; negative
mutagenic call (Test System: AMES SALMONELLA TYPHIMURIUM, Strain/Indicator: TA97, Metabolic Activation: RAT, LIVER, S-9, AROCLOR 1254 (10%), Method: PREINCUBATION): inactive; negative
mutagenic call (Test System: AMES SALMONELLA TYPHIMURIUM, Strain/Indicator: TA97, Metabolic Activation: RAT, LIVER, S-9, AROCLOR 1254, Method: PREINCUBATION): inactive; negative
mutagenic call (Test System: AMES SALMONELLA TYPHIMURIUM, Strain/Indicator: TA98(1,8-DNP6), Metabolic Activation: NONE, Method: STANDARD PLATE): inactive; negative
mutagenic call (Test System: AMES SALMONELLA TYPHIMURIUM, Strain/Indicator: TA98(1,8-DNP6), Metabolic Activation: S-9, Method: STANDARD PLATE): active; positive
mutagenic call (Test System: AMES SALMONELLA TYPHIMURIUM, Strain/Indicator: TA98, Metabolic Activation: HAMSTER, LIVER, S-9, AROCLOR 1254 (10%), Method: PREINCUBATION): active; positive
mutagenic call (Test System: AMES SALMONELLA TYPHIMURIUM, Strain/Indicator: TA98, Metabolic Activation: HAMSTER, LIVER, S-9, AROCLOR 1254, Method: PREINCUBATION): active; positive
mutagenic call (Test System: AMES SALMONELLA TYPHIMURIUM, Strain/Indicator: TA98, Metabolic Activation: NONE, Method: PREINCUBATION): inactive; negative
mutagenic call (Test System: AMES SALMONELLA TYPHIMURIUM, Strain/Indicator: TA98, Metabolic Activation: NONE, Method: STANDARD PLATE): inactive; negative
mutagenic call (Test System: AMES SALMONELLA TYPHIMURIUM, Strain/Indicator: TA98, Metabolic Activation: RAT LIVER S-9, AROCLOR 1254, Method: PREINCUBATION): active; positive
mutagenic call (Test System: AMES SALMONELLA TYPHIMURIUM, Strain/Indicator: TA98, Metabolic Activation: RAT LIVER S-9, PHENOBARBITAL AND BETA-NAPHTHOFLAVONE, Method: PREINCUBATION): active; positive
mutagenic call (Test System: AMES SALMONELLA TYPHIMURIUM, Strain/Indicator: TA98, Metabolic Activation: RAT, LIVER, S-9, AROCLOR 1254 (10%), Method: PREINCUBATION): active; positive
mutagenic call (Test System: AMES SALMONELLA TYPHIMURIUM, Strain/Indicator: TA98, Metabolic Activation: RAT, LIVER, S-9, AROCLOR 1254, Method: PREINCUBATION): active; positive
mutagenic call (Test System: AMES SALMONELLA TYPHIMURIUM, Strain/Indicator: TA98, Metabolic Activation: RAT, LIVER, S-9, AROCLOR 1254, Method: STANDARD PLATE): active; positive
mutagenic call (Test System: AMES SALMONELLA TYPHIMURIUM, Strain/Indicator: TA98, Metabolic Activation: S-9, Method: STANDARD PLATE): active; positive
mutagenic call (Test System: AMES SALMONELLA TYPHIMURIUM, Strain/Indicator: TA100, Metabolic Activation: HAMSTER, LIVER, S-9, AROCLOR 1254 (10%), Method: PREINCUBATION): inactive; negative
mutagenic call (Test System: AMES SALMONELLA TYPHIMURIUM, Strain/Indicator: TA100, Metabolic Activation: HAMSTER, LIVER, S-9, AROCLOR 1254, Method: PREINCUBATION): inactive; negative
mutagenic call (Test System: AMES SALMONELLA TYPHIMURIUM, Strain/Indicator: TA100, Metabolic Activation: NONE, Method: PREINCUBATION): inactive; negative
mutagenic call (Test System: AMES SALMONELLA TYPHIMURIUM, Strain/Indicator: TA100, Metabolic Activation: NONE, Method: STANDARD PLATE): inactive; negative
mutagenic call (Test System: AMES SALMONELLA TYPHIMURIUM, Strain/Indicator: TA100, Metabolic Activation: RAT LIVER S-9, AROCLOR 1254, Method: PREINCUBATION): inactive; negative
mutagenic call (Test System: AMES SALMONELLA TYPHIMURIUM, Strain/Indicator: TA100, Metabolic Activation: RAT LIVER S-9, PHENOBARBITAL AND BETA-NAPHTHOFLAVONE, Method: PREINCUBATION): inactive; negative
mutagenic call (Test System: AMES SALMONELLA TYPHIMURIUM, Strain/Indicator: TA100, Metabolic Activation: RAT, LIVER, S-9, AROCLOR 1254 (10%), Method: PREINCUBATION): inactive; negative
mutagenic call (Test System: AMES SALMONELLA TYPHIMURIUM, Strain/Indicator: TA100, Metabolic Activation: RAT, LIVER, S-9, AROCLOR 1254, Method: PREINCUBATION): inactive; negative
mutagenic call (Test System: AMES SALMONELLA TYPHIMURIUM, Strain/Indicator: TA100, Metabolic Activation: S-9, Method: STANDARD PLATE): active; positive
mutagenic call (Test System: AMES SALMONELLA TYPHIMURIUM, Strain/Indicator: TA1535, Metabolic Activation: HAMSTER, LIVER, S-9, AROCLOR 1254 (10%), Method: PREINCUBATION): inactive; negative
mutagenic call (Test System: AMES SALMONELLA TYPHIMURIUM, Strain/Indicator: TA1535, Metabolic Activation: HAMSTER, LIVER, S-9, AROCLOR 1254, Method: PREINCUBATION): inactive; negative
mutagenic call (Test System: AMES SALMONELLA TYPHIMURIUM, Strain/Indicator: TA1535, Metabolic Activation: NONE, Method: PREINCUBATION): inactive; negative
mutagenic call (Test System: AMES SALMONELLA TYPHIMURIUM, Strain/Indicator: TA1535, Metabolic Activation: RAT, LIVER, S-9, AROCLOR 1254 (10%), Method: PREINCUBATION): inactive; negative
mutagenic call (Test System: AMES SALMONELLA TYPHIMURIUM, Strain/Indicator: TA1535, Metabolic Activation: RAT, LIVER, S-9, AROCLOR 1254, Method: PREINCUBATION): inactive; negative
mutagenic call (Test System: AMES SALMONELLA TYPHIMURIUM, Strain/Indicator: TA1537, Metabolic Activation: RAT LIVER S-9, PHENOBARBITAL AND BETA-NAPHTHOFLAVONE, Method: PREINCUBATION): inactive; negative
mutagenic call (Test System: AMES SALMONELLA TYPHIMURIUM, Strain/Indicator: TA1538, Metabolic Activation: HAMSTER, LIVER, S-9, Method: STANDARD PLATE): active; positive
mutagenic call (Test System: AMES SALMONELLA TYPHIMURIUM, Strain/Indicator: TA1538, Metabolic Activation: RAT, LIVER, S-9, AROCLOR 1254, Method: STANDARD PLATE): active; positive
mutagenic call (Test System: Ames Salmonella typhimurium, Strain/Indicator: TA98, Metabolic Activation: Rat, Liver, S-9, Sodium phenobarbitone, Method: Preincubation): active; positive, test conducted under both aerobic and anaerobic conditions.
mutagenic call (Test System: Ames Salmonella typhimurium, Strain/Indicator: TA102, Metabolic Activation: None, Method: Preincubation): inactive; negative
mutagenic call (Test System: Ames Salmonella typhimurium, Strain/Indicator: TA102, Metabolic Activation: Rat, Liver, S-9, Aroclor 1254, Method: Preincubation): inactive; negative
mutagenic call (Test System: Ames Salmonella typhimurium, Strain/Indicator: TA1538, Metabolic Activation: Rat, Liver, S-9, Sodium phenobarbitone, Method: Preincubation): active; positive, test conducted under both aerobic and anaerobic conditions.
mutagenic call (Test System: MOUSE LYMPHOMA, Strain/Indicator: L5178Y (TK+/TK-), Metabolic Activation: NONE, Method: SUSPENSION/PLATE): active; positive
mutagenic call (Test System: MOUSE LYMPHOMA, Strain/Indicator: L5178Y (TK+/TK-), Metabolic Activation: RAT, LIVER, S-9, AROCLOR 1254, Method: SUSPENSION/PLATE): active; positive

O=C1CCCc2ccc3c([N+](=O)[O-])c4ccccc4cc3c21
mutagenic call (Test System: AMES SALMONELLA TYPHIMURIUM, Strain/Indicator: TA98, Metabolic Activation: NONE): inactive; negative
mutagenic call (Test System: AMES SALMONELLA TYPHIMURIUM, Strain/Indicator: TA98, Metabolic Activation: S-9): inactive; negative
mutagenic call (Test System: AMES SALMONELLA TYPHIMURIUM, Strain/Indicator: TA100, Metabolic Activation: NONE): inactive; negative
mutagenic call (Test System: AMES SALMONELLA TYPHIMURIUM, Strain/Indicator: TA100, Metabolic Activation: S-9): inactive; negative
